{"source": "patent US9284541B2", "about": "“Methods and compositions for protein labeling using lipoic acid ligases” (Massachusetts Institute of Technology, priority 2007, dated 2016)", "key": {"[1]": {"molecular_target": "T1, E. coli LplA (Escherichia coli, UniProt P32099)", "T1 sequence (P32099 2-338 limits assumed)": "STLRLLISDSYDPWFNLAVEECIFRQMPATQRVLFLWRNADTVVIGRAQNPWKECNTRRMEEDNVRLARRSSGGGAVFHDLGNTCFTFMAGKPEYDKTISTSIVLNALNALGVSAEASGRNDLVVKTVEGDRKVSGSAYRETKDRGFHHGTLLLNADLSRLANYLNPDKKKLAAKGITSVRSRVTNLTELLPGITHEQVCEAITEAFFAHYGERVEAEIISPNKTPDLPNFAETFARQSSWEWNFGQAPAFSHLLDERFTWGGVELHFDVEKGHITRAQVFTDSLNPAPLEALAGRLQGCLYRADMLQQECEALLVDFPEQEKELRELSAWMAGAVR", "experiment": "Measurement of LplA-probe ligation kinetics (HPLC)", "type": "biochemical", "experimental": "To measure the kcat for LplA ligation of lipoic acid to E2p, 50 nM LplA was combined with 200 μM E2p, 750 μM lipoic acid, […], and 2 mM magnesium acetate in 25 mM sodium phosphate pH 7.0. The reaction was initiated with addition of 1 mM ATP to the pre-warmed (30° C.) mixture. The reaction was incubated at 30° C., and 90 μL aliquots were removed every 5 minutes and quenched with 50 mM EDTA (final concentration). Samples were analyzed by C18 reverse-phase HPLC as described in the “Methods” section. Measurements were performed in triplicate. A calibration curve was obtained that correlated the ratio of integrated HPLC peak areas (E2p:E2p-probe) to the actual protein ratio, in order to compensate for differences in the extinction coefficients of E2p and lipoylated E2p. The amount of product obtained at each time point was plotted against time, to obtain the Vmax of the reaction. From this, the kcat value was obtained using the equation Vmax=kcat [E]total.\n90 μL aliquots were removed from the 30° C. reactions at 5 minutes intervals, up to 30 minutes, and quenched with 50 mM EDTA (final concentration). Samples were analyzed by HPLC as above. The amount of product obtained at each time point was plotted against time, to obtain the initial velocity for each concentration of azide 7. […] From the Vmax value, kcat was calculated using the equation Vmax=kcat [E]total."}, "[2]": {"molecular_target": "T2, LplA (Escherichia coli, UniProt P32099)", "experiment": "In vitro LplA activity assay: probe ligation onto E2p (HPLC)", "type": "biochemical, E. coli", "details": "350 μM probe, 200 μM E2p, 30 minutes", "experimental": "LplA reactions contained 2 μM LplA, 200 μM E2p, 350 μM probe, 1 mM ATP, 2 mM magnesium acetate, and 25 mM sodium phosphate pH 7.0. Reactions were incubated at 30° C. for 30 minutes, and then quenched with EDTA (final concentration 50 mM). Conversion to product was determined by HPLC on a C18 reverse-phase column with a 40-57% gradient of acetonitrile in water with 0.1% trifluoroacetic acid over 20 minutes (flow rate 1.0 mL/minute). […] Percent conversion to product was calculated from the ratio of the E2p-probe peak area to the sum of (E2p+E2p-probe) peak areas. All measurements were performed in triplicate."}, "[3]": {"test_system": "mitochondrial respiration", "experiment": "Effect of azide 7 on mitochondrial respiration", "type": "cell-based", "details": "24-hour exposure, concentrations less than 750 μM"}, "[4]": {"molecular_target": "T2, LplA", "experiment": "HPLC analysis of LplA modification of HP1-peptide fusions; kcat of azide 7 ligation to LAP", "type": "biochemical, E. coli", "details": "C-terminal fusion to HP1 versus peptide 8", "quoted_text": "To compare the conversion rates for different peptide substrates, reactions were assembled as follows: 1.5 μM LplA, 150 μM HP1-peptide fusion, 750 μM azide 7, 1 mM ATP, and 2 mM magnesium acetate in 25 mM sodium phosphate pH 7.0. Reactions were incubated at 30° C. for 2 hours, then quenched with 50 mM EDTA (final concentration), and subsequently analyzed by C18 reverse-phase HPLC using a gradient of 30-45% acetonitrile in water with 0.1% trifluoroacetic acid over 20 minutes with a 1 mL/minute flow rate. Retention times for unmodified HP1-peptide fusions ranged from 8-12 minutes, and shifted to 16-21 minutes after ligation to azide 7. Measurements were performed in triplicate. The extent of modification was calculated from the ratio of HP1-peptide-azide 7 peak area to the sum of (HP1-peptide+HP1-peptide-azide 7) peak areas."}}, "note": "Entries after “also recorded” stand apart in the source; their conditions may differ."}
{"compound": "O=C(O)CCCC[C@@H]1CCSS1", "note": "(racemic) [lipoic acid]", "values": [{"measurement": "kcat of LplA-catalyzed ligation to E2p", "setting": "[1]; 30° C., pH 7.0", "result": "0.253 ± 0.003", "unit": "s⁻¹"}]}
{"compound": "[N-]=[N+]=NCCCCCCCC(=O)O", "note": "[azide 7, 8-azidooctanoic acid]", "values": [{"measurement": "Kcat relative to the measured Kcat for lipoic acid ligation", "setting": "[1]; ligation to E2p", "result": 2.3, "unit": "fold"}, {"measurement": "incorporation / ligation kinetics by LplA", "setting": "[2]", "result": "fastest kinetics; also recorded: best kinetics"}, {"measurement": "effect on mitochondrial respiration", "setting": "[3]", "result": "no effect"}]}
{"compound": "peptide 9: peptide 8 fused to the C-terminal end of HP1 (SEQ ID NO: 9) (DEVLVEIETDKAVLEVP)", "values": [{"measurement": "drop of lipoylation rate", "setting": "[4]", "result": 5, "unit": "fold"}]}
